Test results taken from patent US20230167088A1, “1-PYRAZINYLPYRAZOLYL-3-OXYALKYL ACIDS AND THEIR DERIVATIVES, AND THEIR USE FOR CONTROL OF UNDESIRED PLANT GROWTH” (BAYER AKTIENGESELLSCHAFT, priority 2020, published 2023).

Assays:
ECHCG [1] = test: Herbicidal post-emergence action 1a (greenhouse pots, visual rating); assay type: in vivo, Echinochloa crus-galli; details: rated visually about 3 weeks after treatment, 100% = plants have died, 0% = like control plants
Procedure, shortened: (§1)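 Weeds and crops sown in sandy loam in greenhouse pots were sprayed post-emergence at the one-leaf stage (2–3 weeks after sowing) with WP or EC formulations plus 0.5% additive at 600 l/ha water, 320 and/or 80 g/ha. About 3 weeks later damage was rated visually against untreated controls (0% = no effect, 100% = dead).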

ALOMY [2] = test: Herbicidal pre-emergence action 2a (greenhouse pots, visual scoring); assay type: in vivo, Alopecurus myosuroides; details: dosage 320 g/ha, visual scoring after about 3 weeks
Procedure, shortened: (§2)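 Pre-emergence greenhouse pot test: WP or EC formulations sprayed onto covering soil over sown seeds at 600 l/ha water with 0.5% additive, at rates corresponding to 320 g/ha and/or 80 g/ha. Visual % activity versus untreated controls after about 3 weeks (100% = plants dead).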

ECHCG [3] = test: Herbicidal pre-emergence action 2b (doubly sown, 1280 g/ha); assay type: in vivo, Echinochloa crus-galli; details: doubly sown pots, dosage 1280 g/ha, visual scoring after about 3 weeks
Procedure, shortened: (§3)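 Pots of sandy loam doubly sown with one monocot and one dicot weed species, covered, then soil surface sprayed pre-emergence with WP or EC formulations plus 0.5% additive at 600 l/ha water. Greenhouse-grown about 3 weeks; activity scored visually as % versus untreated controls (100% = dead).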

POAAN = test: as above; assay type: in vivo, Poa annua; details: doubly sown pots, dosage 1280 g/ha, visual scoring after about 3 weeks
Procedure, shortened: as §3

LOLRI [4] = test: Herbicidal post-emergence action 1a (greenhouse pots, visual rating); assay type: in vivo, Lolium rigidum; details: Dosage 320 g/ha; rated visually about 3 weeks after treatment; 100% = plants have died, 0% = like control plants
Procedure, shortened: as §1

STEME [5] = test: as above; assay type: in vivo, Stellaria media; details: Dosage 320 g/ha; rated visually about 3 weeks after treatment; 100% = plants have died, 0% = like control plants
Description: (§4) [table] a) Seeds of monocotyledonous and dicotyledonous weeds and crop plants are placed in sandy loam in plastic or organic plant pots, covered with soil and cultivated in a greenhouse under controlled growth conditions. 2 to 3 weeks after sowing, the test plants are treated at the one-leaf stage. The compounds of the invention, formulated in the form of wettable powders (WP) or as emulsion concentrates (EC), are then sprayed onto the green parts of the plants as aqueous suspension or emulsion with addition of 0.5% additive at a water application rate of 600 1/ha (converted). After the test plants have been kept in the greenhouse under optimum growth conditions for about 3 weeks, the activity of the preparations is rated visually in comparison to untreated controls. For example, 100% activity=the plants have died, 0% activity=like control plants. Tables A1 to A15 below show the effects of selected compounds of the general formula (I) according to Tables 1 and 2 on various harmful plants and an application rate corresponding to 320 g/ha and/or 80 g/ha, which were obtained by the experimental procedure mentioned above.

POLCO [6] = test: Herbicidal pre-emergence action 2a (greenhouse pots, visual scoring); assay type: in vivo, Polygonum convolvulus; details: dosage 320 g/ha, visual scoring after about 3 weeks vs untreated controls
Procedure, shortened: as §2

AMARE [7] = test: Herbicidal pre-emergence action 2b (doubly sown, 1280 g/ha); assay type: in vivo, Amaranthus retroflexus; details: doubly sown pots, dosage 1280 g/ha, visual scoring after about 3 weeks
Procedure, shortened: as §3

VIOTR [8] = test: Herbicidal post-emergence action 1a (greenhouse pots, visual rating); assay type: in vivo, Viola tricolor; details: visual rating about 3 weeks after treatment
Procedure, shortened: as §1

DIGSA = test: Herbicidal pre-emergence action 2a (greenhouse pots, visual scoring); assay type: in vivo, Digitaria sanguinalis; details: dosage 320 g/ha, visual scoring after about 3 weeks
Procedure, shortened: as §2

MATIN = test: Herbicidal pre-emergence action 2b (doubly sown, 1280 g/ha); assay type: in vivo, Matricaria inodora; details: doubly sown pots, dosage 1280 g/ha, visual scoring after about 3 weeks
Procedure, shortened: as §3

POLCO [9] = test: Herbicidal post-emergence action 1a (greenhouse pots, visual rating); assay type: in vivo, Polygonum convolvulus; details: dosage 320 g/ha, visual rating about 3 weeks after treatment
Procedure, shortened: as §1

VIOTR [10] = test: Herbicidal pre-emergence action 2a (greenhouse pots, visual scoring); assay type: in vivo, Viola tricolor; details: dosage 320 g/ha, visual scoring after about 3 weeks vs untreated controls
Procedure, shortened: as §2

ECHCG [11] = test: as above; assay type: in vivo, Echinochloa crus-galli; details: dosage 320 g/ha, visual scoring after about 3 weeks
Procedure, shortened: as §2

SETVI = test: as above; assay type: in vivo, Setaria viridis; details: dosage 320 g/ha, visual scoring after about 3 weeks vs untreated controls
Procedure, shortened: as §2

AVEFA [12] = test: as above; assay type: in vivo, Avena fatua; details: dosage 320 g/ha, visual scoring after about 3 weeks
Procedure, shortened: as §2

AMARE [13] = test: as above; assay type: in vivo, Amaranthus retroflexus; details: dosage 320 g/ha, visual scoring after about 3 weeks vs untreated controls
Procedure, shortened: as §2

HORMU = test: Herbicidal post-emergence action 1a (greenhouse pots, visual rating); assay type: in vivo, Hordeum murinum; details: rated visually about 3 weeks after treatment, 100% = plants have died, 0% = like control plants
Description: as §4

LOLRI [14] = test: Herbicidal pre-emergence action 2a (greenhouse pots, visual scoring); assay type: in vivo, Lolium rigidum; details: dosage 320 g/ha, visual scoring after about 3 weeks vs untreated controls
Procedure, shortened: as §2

ALOMY [15] = test: Herbicidal post-emergence action 1a (greenhouse pots, visual rating); assay type: in vivo, Alopecurus myosuroides; details: rated visually about 3 weeks after treatment, 100% = plants have died, 0% = like control plants
Procedure, shortened: as §1

STEME [16] = test: Herbicidal pre-emergence action 2b (doubly sown, 1280 g/ha); assay type: in vivo, Stellaria media; details: doubly sown pots, dosage 1280 g/ha, visual scoring after about 3 weeks
Procedure, shortened: as §3

AVEFA [17] = test: Herbicidal post-emergence action 1a (greenhouse pots, visual rating); assay type: in vivo, Avena fatua; details: rated visually about 3 weeks after treatment, 100% = plants have died, 0% = like control plants
Procedure, shortened: as §1

VERPE = test: as above; assay type: in vivo, Veronica persica; details: dosage 80 g/ha, visual rating about 3 weeks after treatment
Procedure, shortened: as §1

COC(=O)COc1nn(-c2cnccn2)c(-c2ccnc(F)c2)c1Br [Example I-09]
Post-emergence action against ECHCG in % (ECHCG [1]; Dosage 80 g/ha): 80%
Post-emergence action against ECHCG in % (ECHCG [1]; Dosage 320 g/ha): 80%
Pre-emergence action against ALOMY in % (ALOMY [2]): 90%
Pre-emergence action at 1280 g/ha against ECHCG in % (ECHCG [3]): 100%
Pre-emergence action at 1280 g/ha against POAAN in % (POAAN): 100%
Post-emergence action against LOLRI in % (LOLRI [4]): 90%
Post-emergence action against STEME in % (STEME [5]): 80%
Pre-emergence action against POLCO in % (POLCO [6]): 100%
Pre-emergence action at 1280 g/ha against AMARE in % (AMARE [7]): 90%
Post-emergence action against VIOTR in % (VIOTR [8]; dosage 80 g/ha): 90%
Post-emergence action against VIOTR in % (VIOTR [8]; dosage 320 g/ha): 90%
Pre-emergence action against DIGSA in % (DIGSA): 100%
Pre-emergence action at 1280 g/ha against MATIN in % (MATIN): 100%
Post-emergence action against POLCO in % (POLCO [9]): 100%
Pre-emergence action against VIOTR in % (VIOTR [10]): 90%
Pre-emergence action against ECHCG in % (ECHCG [11]): 100%
Pre-emergence action against SETVI in % (SETVI): 90%
Pre-emergence action against AVEFA in % (AVEFA [12]): 90%
Pre-emergence action against AMARE in % (AMARE [13]): 100%
Post-emergence action against HORMU in % (HORMU; Dosage 80 g/ha): 80%
Post-emergence action against HORMU in % (HORMU; Dosage 320 g/ha): 90%
Pre-emergence action against LOLRI in % (LOLRI [14]): 90%
Post-emergence action against ALOMY in % (ALOMY [15]; Dosage 80 g/ha): 80%
Post-emergence action against ALOMY in % (ALOMY [15]; Dosage 320 g/ha): 90%
Pre-emergence action at 1280 g/ha against STEME in % (STEME [16]): 100%
Post-emergence action against AVEFA in % (AVEFA [17]; Dosage 80 g/ha): 90%
Post-emergence action against AVEFA in % (AVEFA [17]; Dosage 320 g/ha): 90%
Post-emergence action against VERPE in % (VERPE): 90%
